Patent US20050003998A1, “Therapeutic use of selective LXR modulators” (priority 2002, published 2005)
“Also recorded” adds a separate entry of the source.

Experiments:
[1] = tested on: mouse adult neural stem cells derived from the lateral ventricle wall; experiment: Intracellular ATP assay on adult mouse neurosphere cultures; format: cell-based; conditions: for intracellular ATP levels, and hence cell number (adult mouse NSC proliferation or survival in vitro): 3 days, non-adherent conditions, values normalized to the vehicle (100%)
Method: The anterior lateral wall of the lateral ventricle of 5-6 week old mice was enzymatically dissociated in 0.8mg/ml hyaluronidase and 0.5 mg/ml trypsin in DMEM containing 4.5 mg/ml glucose and 80units/ml DNase at 37° C. for 20 min. The cells were gently triturated and mixed with three volumes of Neurosphere medium (DMEM/F12, B27 supplement, 12.5 mM HEPES pH7.4) containing 20 ng/ml EGF (unless otherwise stated), 100units/ml penicillin and 100 μg/ml streptomycin. After passing through a 70 μm strainer, the cells were pelleted at 160×g for 5 min. The supernatant was subsequently removed and the cells resuspended in Neurosphere medium supplemented as above, plated out in culture dishes and incubated at 37° C. Neurospheres were ready to be split approximately 7 days after plating.
To split neurosphere cultures, neurospheres were collected by centrifugation at 160×g for 5 min. The neurospheres were resuspended in 0.5 ml Trypsin/EDTA in HBSS (1×), incubated at 37° C. for 2 min and triturated gently to aid dissociation. Following a further 3 min incubation at 37° C. and trituration, 3 volumes of ice cold NSPH-media-EGF were added to stop further trypsin activity. The cells were pelleted at 220×g for 4 min, resuspended in fresh Neurosphere medium supplemented with 20 ng/ml EGF and 1 nM bFGF plated out and incubated at 37° C.
Mouse neurospheres, cultured as described above, from passage 2, were seeded in DMEM/F12 supplemented with B27 into a 96-well plate as single cells (10000 cells/well) to the substances to be measured were added at the concentrations indicated. After 3 days incubation, intracellular ATP was measured using the ATP-SL kit from BioThema, Sweden, according to the manufacturer's instructions. The LXR agonists: 5-Cholesten-24(s), 25-epoxy-3b-ol were purchased from Steraloids (no C6640-000): TO-901317 were purchased from Sigma-Aldrich (no T2320). The RXR agonist cis-4,7,10,13,16,19-Docosahexaenoic acid (DHA) were purchased from Sigma-Aldrich (no 43938). […]

[2] = tested on: rat pheochromocytoma cells; conditions: cited from earlier work
irritant dermatitis = conditions: phorbol 12-myristate-13-acetate on ears of CD1 mice; cited from earlier work
phospholipase A2 (PLA2) = conditions: cited from earlier work; for PLA2 enzymatic activity / PLA2 mRNA: rat smooth muscle cells
[3] = tested on: beta-amyloid induced apoptosis; conditions: Alzheimer's disease; cited from earlier work
cells in the LVW [4] = experiment: Oral administration of TO-901317 in chow, BrdU incorporation in the lateral ventricle wall; format: in vivo, C57BL/6J male mice; conditions: 4.3 and 43 mg/kg/day, mouse
Method: (§1) C57BL/6J male mice were housed under controlled temperature and humidity and had free access to water and chow. 40 mice were divided into 5 groups (n=8). Group 1 received chow mixed with 0.025% T0901317 (Sigma-Aldrich) ad libitum for 10 days (dose previously show to be effective for brain activity of the compound). On day 7 and 8 the animals received a single injection of 5-bromodeoxyuridine, 100 mg/kg i.p., respectively and were sacrificed on day 10 by means of cervical dislocation.
Group 2 received identical treatment except that the chow in this case contained 0.0025% T0901317. […] No correlation between weight gain, food intake or BrdU incorporation could be detected. […]
(§2) Brains were cut into 14-μm coronal sections using a cryostat-microtome. […] After 1 hour of washing, the BrdU-antibody complex was detected using 0.05% diaminobenzidine with 0.01% H2O2, and counterstained with Hematoxylin. […]
(§3) For all BrdU labeling experiments, three to six sections per animal were analyzed. BrdU-positive cells were counted along 2×250 micrometer strips of the lateral ventricle wall (including the ependymal cell layer and subventricular zone). […] The numbers of BrdU-positive cells are calculated per area (mm^2). The mean ± SEM were calculated. Differences between means were determined by one-way ANOVA.

cells in the LVW [5] = experiment: Intracerebroventricular infusion of TO-901317, BrdU incorporation in the lateral ventricle wall; format: in vivo, male Wistar rats; conditions: icv infusion 0.6 nmol/animal/day, 14 days, rat; calculated day concentration 0.2 μM
Method: 10 week old male Wistar rats maintained on a 12hr light/dark cycle with food and water ad libidum, were infused in the right lateral ventricle with TO-901317 (Sigma-Aldrich), using an Alzet pump (2002), 14 days at a daily dose of 0.6 nmol/animal/day (infused at a rate of 0.5 μl/hr; 50 μM solution). Bromodeoxyuridine (BrdU) (50 mg/ml) was also included in the infusion vehicle (0.9% saline containing 1 mg/ml mouse serum albumin (Sigma)) to enable measurement of proliferation by quantitation of BrdU incorporation in the DNA. Animals were sacrificed at day 14, perfused with PBS and the brains removed and frozen at −70° C. prior to sectioning for immumohistochemical analysis.
as §2, with “cryostat-microtome. The sections were thawed onto pretreated slides and fixed in 4% (wt/vol) paraformaldehyde/PBS for 10 min.” for “cryostat-microtome.”
as §3

[6] = Weight gain and food intake during oral administration; format: in vivo, C57BL/6J male mice; conditions: chow with 0.025% or 0.0025% compound, mouse
Method: as §1
Group 2 received identical treatment except that the chow in this case contained 0.0025% T0901317. Group 3 and 4 received identical treatments as groups 1 and 2, respectively, with the exception that these animals received 5-bromodeoxyuridine injections on day 1 and 2 after the initiation of the experiment and were sacrificed on day 4. Group 5 served as control and received chow without any T0901317 but identical to groups 1-4 received two daily injections of 5-bromodeoxyuridine 100 mg/kg i.p. and was sacrificed two days later. The mean daily intake was 4.25±0.13 (S.E.M.) g chow, and the mean weight of the animals 24.8±0.11 (S.E.M.) g during the cause of the experiment resulting in an average dose of 43 mg/kg/day for groups 1 and 3 (“High”), and an average dose of 4.3 mg/kg/day for groups 2 and 4 (“Low”). […] No correlation between weight gain, food intake or BrdU incorporation could be detected. […]

Structure (SMILES)	intracellular ATP levels, and hence cell number (adult mouse NSC proliferation or survival in vitro) [1]	neuronal differentiation measured as neurite outgrowth [2]	irritant dermatitis (irritant dermatitis)	PLA2 enzymatic activity (phospholipase A2 (PLA2))	PLA2 mRNA (phospholipase A2 (PLA2))	other results
C[C@H](CC[C@@H]1OC1(C)C)[C@H]1CC[C@H]2[C@@H]3CC=C4C[C@@H](O)CC[C@]4(C)[C@H]3CC[C@]12C [5-Cholesten-24(s), 25-epoxy-3b-ol]	mediates adult mouse NSC proliferation or survival in vitro	–	–	–	–	–
CC(C)CC[C@@H](O)[C@@H](C)[C@H]1CC[C@H]2[C@@H]3CC=C4C[C@@H](O)CC[C@]4(C)[C@H]3CC[C@]12C [22(R)-hydroxycholesterol]	–	induces neuronal differentiation	able to reduce irritant dermatitis	increased enzymatic activity	accumulation of PLA2 mRNA	PLA2 promoter activity (phospholipase A2 (PLA2); transient transfection, in combination with 9-cis-retinoic acid): synergistically activated; beta-amyloid induced apoptosis [3]: prevention of beta-amyloid induced apoptosis
C[C@H](CCCC(C)(C)O)[C@H]1CC[C@H]2[C@@H]3CC=C4C[C@@H](O)CC[C@]4(C)[C@H]3CC[C@]12C [25-hydroxycholesterol]	–	–	able to reduce irritant dermatitis	increased enzymatic activity	accumulation of PLA2 mRNA	–
O=C(O)Cc1cccc(OCCCN(Cc2cccc(C(F)(F)F)c2Cl)CC(c2ccccc2)c2ccccc2)c1 [GW3965]	–	–	able to reduce irritant dermatitis	–	–	–
O=S(=O)(c1ccccc1)N(CC(F)(F)F)c1ccc(C(O)(C(F)(F)F)C(F)(F)F)cc1 [TO-901317]	mediates adult mouse NSC proliferation or survival in vitro	–	–	–	–	incorporation of BrdU of cells in the LVW (cells in the LVW [4]): significantly decreased; also recorded: clearly effective; incorporation of BrdU in the LVW (cells in the LVW [5]): did not significantly change; also recorded: ineffective; concentration-response relationship observed in vitro with cultured mouse NSC ([1]; Example 2, effective concentrations): 3 to 5 µM; weight gain or food intake [6]: No difference between groups
CCCCCCCCCCCCCCOc1ccc(C(=O)O)o1 [TOFA, 5-tetradecyloxy-2-furancarboxylic acid]	–	induces neuronal differentiation	–	–	–	–
